Data published in patent publication US5959145A, “Fatty acid analog enzyme substrates” (priority 1993, dated 1999).

What was measured:
yeast NMT = target: T1, yeast NMT (Saccharomyces cerevisiae, UniProt P14743); assay: kinetic characterisation of fatty acid analogs as yeast NMT substrates; type: biochemical
T1 construct: 11,000-fold purified preparation of yeast NMT; endogenous in cells; host or cells: yeast (enzyme purified from yeast, 11,000-fold)
T1 sequence (P14743 1-455): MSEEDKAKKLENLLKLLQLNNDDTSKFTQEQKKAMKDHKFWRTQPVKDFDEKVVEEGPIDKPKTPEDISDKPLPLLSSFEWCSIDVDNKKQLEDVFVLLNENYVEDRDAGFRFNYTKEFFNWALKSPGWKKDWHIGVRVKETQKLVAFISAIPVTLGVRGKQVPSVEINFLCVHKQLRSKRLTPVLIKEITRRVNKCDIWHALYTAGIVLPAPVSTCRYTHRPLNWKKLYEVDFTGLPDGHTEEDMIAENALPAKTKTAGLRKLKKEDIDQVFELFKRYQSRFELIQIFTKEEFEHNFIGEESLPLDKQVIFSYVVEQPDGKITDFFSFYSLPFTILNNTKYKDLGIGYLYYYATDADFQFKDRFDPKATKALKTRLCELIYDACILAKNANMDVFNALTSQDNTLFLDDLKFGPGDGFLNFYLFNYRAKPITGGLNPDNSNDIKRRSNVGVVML
Text: Similar results were obtained using an 11,000-fold purified preparation of yeast NMT [Towler et al., Proc. Natl. Acad. Sci. USA 84, 2708-2712 (1987)].
Other illustrative examples of the oxy- and thio-substituted fatty acid analog substrate compounds of the invention were synthesized in Examples 6 to 14 and tested in Example 15 as substrates for the yeast NMT.
(§1) For these Examples, each analog synthesized is characterized by ^1 H and ^13 C NMR as well as mass spectroscopy. The analogs are then characterized kinetically as NMT substrates. Briefly, fatty acid analogs are converted to their CoA esters with Pseudomonas CoA ligase and incubated with the iodinated peptide GNAAS[^125 I]YRR and a source of NMT. […] The radiolabelled peptide is then used at concentrations which will lead to 50% enzyme saturation (i.e., at its Km) for the determination of fatty acid analog kinetic characteristics. Representative analogs with sulfur or oxygen in the backbone of the fatty acid chain serve as good substrates for NMT in vitro and will compete for incorporation of ^3 H labelled myri-state into yeast proteins in vivo. In addition, these analogs differ markedly in hydrophobicity from myri-state as measured both by C18 reverse phase HPLC elution profiles and by 2-octanol/water partition coefficients. The analog CH3 O(CH2)11 COOH, for example, partitions into water 20 fold better than myristate. It is believed that these analogs will be incorporated into mammalian acylproteins in vivo and that their incorporation into these proteins will drastically alter protein processing or targeting. It is further believed that the incorporation of fatty acid analogs of both myristate and palmitate into ester linked and phosphatidyl inositol glycan linked acylproteins will also dramatically alter their properties. Since many viral proteins and oncogenes are acylated, these compounds represent a new class of potential antiviral and antineoplastic agents.

[1] = C18 reverse phase HPLC elution of fatty acyl peptides (hydrophobicity); type: physicochemical
Protocol: The fatty acid analog acyl-peptide eluted 7 minutes earlier than the corresponding myristoyl peptide. The free peptide elutes in the void volume (3-5minutes).
This difference was evident when the HPLC elution characteristics of fatty acyl peptides were examined. The elution time of a particular acyl-peptide depends strongly on the peptide sequence as well as on the acyl chain attached to that peptide. For example, the elution times of fatty acyl derivatives of GNAAAARR are (in minutes) decanoic acid, 9; dodecanoic acid, 18; myristic acid, 24; and palmitic acid, 30. Elution times for fatty acyl derivatives of GNAAS[^125 I]YRR are 23 and 28 minutes for C12 and C14 fatty acids, respectively (FIG. 2). […] Such a change could alter the biological activity of myristoyl proteins.
as §1

[2] = system: yeast myristoylprotein of Mr 20 kDa; assay: competition for [3H]myristate incorporation into yeast acylprotein in vivo; type: cell-based; details: Saccharomyces cerevisiae, 0.75 h, read-out: reduction in incorporation of [3H]myristate into yeast myristoylprotein of Mr 20 kDa
Protocol: (§2) Saccharomyces cerevisiae strain BJ405 [MATα, trpl, prbl, prcl, pep4-3; Hemmings et al., Proc. Natl. Acad. Sci. USA 78, 435-439 (1981)] (previously referred to as JR153) was grown to mid-log phase (OD660 nm =1.0-1.2) in YPD medium (1% yeast extract/2% Bactopeptone/2% Dextrose) at 30° C. in a rotary shaker water bath. Cells were pretreated with Cerulenin at 2 μg/ml for 15 minutes and then incubated for 20-45 minutes with unlabeled myristate, palmitate or fatty acid analog at 100 μM in the presence of either 5 μM [9,10-^3 H(N)]-myristate (22.4 Ci/mmol) or L-[^35 S]methionine (1106 Ci/mmol) at 30 μCi/ml of culture.
(§3) Cells were cooled on ice 5 minutes, pelleted at 10,000×g, then broken and extracted by the method of Towler et al., Proc. Natl. Acad. Sci. USA 83, 2812-2816 (1986). Total protein synthesis was assayed by trichloroacetic acid (TCA) precipitation. Proteins were separated by SDS-12% polyacrylamide gel electrophoresis, and [^3 H]fatty acid incorporation into cellular acyl-proteins was assayed by autoradiography followed by laser densitometry.

[3] = growth, toxicity and total protein synthesis in yeast cells; type: cell-based; details: s. cerevisiae bj405, vs control cells not exposed to exogenous fatty acid, read-out: reduction in total protein synthesis ([35S]methionine into TCA precipitable protein)
Protocol: as §2, §3

CCCCCCCCCCCCCC(=O)O [myristic acid, reference compound]
Peptide Vm (yeast NMT; peptide GNAAS[125I]YRR varied, fatty acid analog at 15 μM, myristate control = 100%): 100%
Acyl CoA Vm (yeast NMT; radiolabelled peptide at its Km, analog varied, myristate control = 100%): 100%
Km (yeast NMT; radiolabelled peptide at its Km, analog varied, read-out: Acyl CoA Km): 0.6 µM
Elution Time ([1]; C18 reverse phase HPLC, acyl derivative of GNAAS[125I]YRR, Table 2): 26 min
elution time of fatty acyl derivative of GNAAAARR ([1]; reverse phase HPLC): 24 min
elution time of fatty acyl derivative of GNAAS[125I]YRR ([1]; reverse phase HPLC, FIG. 2, text): 28 min
inhibition at 100 µM [2]: 75 to 80%
inhibition at 100 µM [3]: 10 to 15%
